# Like-named read-outs stand apart in the source and are kept apart here.
# What was measured:
# [1] = tested on: gouty arthritis rats (sodium urate, right ankle and knee joint cavities); test: Pharmacodynamics experiment B on gouty arthritis rats: ankle swelling rate; assay type: in vivo, SD rats; conditions: for change in vivo at 0.6 mg/kg / change in vivo at 1.2 mg/kg: Rattus norvegicus, po, read-out: Swelling rate (ankle)
# Outline: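 Male SD rats dosed by gavage at 0.6 mg/kg (0.5% CMC-Na suspension) daily for 7 days before and 3 days after injection of 0.2 mL sodium urate solution into right ankle and knee joints. Ankle circumference measured before and 2-48 h after modeling; swelling rate = swelling degree/baseline ×100%, mean values.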
# TNF-α [2] = test: Inflammatory factor experiment A: TNF-α in gouty arthritis rats; assay type: in vivo, SD rats
# Method: (§1) Compounds 14, 17 and 26 were prepared by grinding with 0.5% CMC-Na before administration and into a suspension for gavage at the corresponding concentration (0.06 mg/mL), with a dosage volume of 10 mL/kg. Colchicine, purchased from Sun Chemical Technology (Shanghai) Co., Ltd. with batch no. 49ETRRAS, and was prepared by grinding with 0.5% CMC-Na before administration and into a suspension for gavage at the corresponding concentration (0.06 mg/mL), with a dosage volume of 10 mL/kg.
# (§2) The compounds in each group were prepared into a suspension of the corresponding concentration, and the dosage volume was 10 mL/kg.
# (§3) The crystalline arthritis model was prepared by intra-articular injection of urate crystals (40 mg/mL in the left ankle joint of each rat). Different doses of the test compounds were given separately by gavage administration. The day of administration was defined as day 1 of the experiment, and the compounds were administered once a day for 10 consecutive days (pre-administration of the drug for 7 days prior to modeling, modeling on day 8, and continuation of the drug for 3 days). The experiment ended on day 10. […]
# IL-6 [3] = test: Inflammatory factor experiment A: IL-6 in gouty arthritis rats; assay type: in vivo, SD rats; conditions: synovial tissue of knee joints; dose 0.6 mg/kg gavage; day 10
# Method: as §1, §2, §3
# TNF-α [4] = test: Inflammatory factor experiment B: TNF-α in knee synovial tissue (ELISA); assay type: in vivo, SD rats
# IL-1β = test: Inflammatory factor experiment B: IL-1β in knee synovial tissue (ELISA); assay type: in vivo, SD rats
# IL-6 [5] = test: Inflammatory factor experiment B: IL-6 in knee synovial tissue (ELISA); assay type: in vivo, SD rats
# [6] = Acute toxicity test in mice by single administration; assay type: in vivo, ICR mice; conditions: both sexes, ICR, mouse, in vivo, po; acute toxicity, mice, single gavage; read-out: Maximum tolerated dose (MTD)
# Method: (§4) Compounds 34, 48, 55 and 58 were ground with 0.5% CMC-Na before administration, and prepared into a suspension of the corresponding concentration for gavage, with an administration volume of 0.1 mL/10 g.
# (§5) ICR mice, SPF grade, weighing 18-20 g, 6-8 weeks old, were provided by Nantong University. The Laboratory Animal Production License was SCXK (Su) 2016-0010 and Laboratory Animal Use License was SYXK (Su) 2017-0035.
# (§6) After overnight fasting, the drug was administered once by gavage in a volume of 0.1 mL/10 g. The normal group was given the corresponding volume of 0.5% CMC-Na solution according to body weight. The state of the animal was observed after administration, the animals were weighed daily and the number of deaths was recorded for 14 consecutive days.
# ICR mice = test: as above; assay type: in vivo; conditions: single gavage dose 50 mg/kg; 14 days; deaths/animals
# Method: as §4, §5, §6
# [7] = tested on: novel coronavirus infection; conditions: cited from earlier work
# [8] = death 35 h after ingestion; cited from earlier work
# [9] = compounds 0.6 mg/kg, colchicine 0.6 and 1.2 mg/kg
# [10] = 4,159 patients with nasopharyngeal nucleic acid test
smiles,measurement,setting,value
"COc1cc2c(c(OC)c1OC)-c1ccc(OC)c(=O)cc1[C@@H](NC(C)=O)CC2 [colchicine, reference compound]",change in vivo at 0.6 mg/kg,[1]; 2 h,10.5%
same,change in vivo at 1.2 mg/kg,[1]; 2 h,8.97%
same,change in vivo at 0.6 mg/kg,[1]; 4 h,15.7%
same,change in vivo at 1.2 mg/kg,[1]; 4 h,14.9%
same,change in vivo at 0.6 mg/kg,[1]; 8 h,20.6%
same,change in vivo at 1.2 mg/kg,[1]; 8 h,17.2%
same,change in vivo at 0.6 mg/kg,[1]; 10 h,23.4%
same,change in vivo at 1.2 mg/kg,[1]; 10 h,19.4%
same,change in vivo at 0.6 mg/kg,[1]; 24 h,24.4%
same,change in vivo at 1.2 mg/kg,[1]; 24 h,19.8%
same,change in vivo at 0.6 mg/kg,[1]; 48 h,12.1%
same,change in vivo at 1.2 mg/kg,[1]; 48 h,9.29%
same,"Ankle swelling rate versus model group, in words",[1]; [9],significantly (P<0.01) reduced
same,"TNF-α level after modeling, in words",TNF-α [2]; 0.6 mg/kg,can reduce the TNF-α level
same,Decreased TNF-α percentage %,"TNF-α [2]; synovial tissue of knee joints, dose 0.6 mg/kg gavage, day 10",93.73%
same,Decreased IL-6 percentage %,IL-6 [3],107.14%
same,inhibition in vivo at 0.6 mg/kg,"TNF-α [4]; Rattus norvegicus, po, synovial tissue of knee joints, 48 h after modeling, dose 0.6 mg/kg, read-out: TNF-α percentage decrease %",58%
same,inhibition in vivo at 1.2 mg/kg,"TNF-α [4]; Rattus norvegicus, po, synovial tissue of knee joints, 48 h after modeling, dose 1.2 mg/kg (high dose group), read-out: TNF-α percentage decrease %",52.5%
same,"TNF-α level after modeling, in words",TNF-α [4]; [9],could reduce the TNF-αlevel
same,inhibition in vivo at 0.6 mg/kg,"IL-1β; Rattus norvegicus, po, synovial tissue of knee joints, 48 h after modeling, dose 0.6 mg/kg, read-out: IL-1β percentage decrease %",74.2%
same,inhibition in vivo at 1.2 mg/kg,"IL-1β; Rattus norvegicus, po, synovial tissue of knee joints, 48 h after modeling, dose 1.2 mg/kg (high dose group), read-out: IL-1β percentage decrease %",63.1%
same,"IL-1β level after modeling, in words",IL-1β; [9],reduced IL-1β in synovial tissue
same,inhibition in vivo at 0.6 mg/kg,"IL-6 [5]; Rattus norvegicus, po, synovial tissue of knee joints, 48 h after modeling, dose 0.6 mg/kg, read-out: IL-6 percentage decrease %",83.5%
same,inhibition in vivo at 1.2 mg/kg,"IL-6 [5]; Rattus norvegicus, po, synovial tissue of knee joints, 48 h after modeling, dose 1.2 mg/kg (high dose group), read-out: IL-6 percentage decrease %",96.3%
same,"IL-6 level after modeling, in words",IL-6 [5]; [9],could reduce the IL-6 level
same,MTD at 14 days,[6],< 50 mg/kg
same,Mortality rate,ICR mice,3/6
same,Reduction of hospital admissions,[7]; [10],25%
same,Reduction of need for respiratory equipment,[7]; [10],50%
same,Reduction of number of deaths,[7]; [10],44%
same,Lower risk of hospitalization or death compared with placebo,"[7]; 4,488 non-hospitalized patients",21%
same,Dose with reported death cases,[8],0.4 mg/kg

# Source: patent publication US20250129012A1, “ANTI-INFLAMMATORY AND ANALGESIC COMPOUNDS AND USE THEREOF” (JIANGSU ATOM BIOSCIENCE AND PHARMACEUTICAL CO., LTD., priority 2021, published 2025)
